pIC50: −log10 of the molar value. Read-outs that look alike come from different tables or passages of the source.
Assays:
DYRK1A [1] = target: T1, DYRK1A (Rattus norvegicus, UniProt Q63470); assay: DYRK1A ELISA kinase assay; format: biochemical; conditions: for times less potent against DYRK1A compared to the di-hydroxy derivatives: A-ring hydroxyl removal, vs GCG
[2] = Stability in biological media; format: in vitro ADME; conditions: biological media (plasma and hepatocytes media)
[3] = system: spinal cord inflammation, demyelination, and axonal neurodegeneration; assay: Histopathological analysis of spinal cord sections of EAE mice; format: in vivo; conditions: intranasal vs oral, 15 mg/kg BID
DYRK1A [4] = target: T1, DYRK1A; assay: DYRK1A ELISA assay with varying concentrations of ATP; format: biochemical; conditions: [ATP] up to 0.8 mM
[5] = system: MOG35–55-induced murine model of chronic progressive Experimental Autoimmune Encephalomyelitis (EAE); assay: EAE therapeutic model, disease scores; format: in vivo
[6] = Exposure after intranasal compared to oral route; format: in vivo; conditions: brain and peripheral blood; data not shown
[7] = cited from earlier work
[8] = mice; cited from earlier work

Structure (SMILES): O=C(O[C@H]1Cc2ccccc2O[C@@H]1c1cc(O)c(O)c(O)c1)c1cc(O)c(O)c(O)c1 (racemic) [1a]
- times less potent against DYRK1A compared to the di-hydroxy derivatives (DYRK1A [1]): about 4 times
- pIC50 (DYRK1A [1]; read-out: DYRK1A IC50, ELISA assay): 6.37

Structure (SMILES): O=C(O[C@@H]1Cc2c(O)cc(O)cc2O[C@H]1c1ccc(O)c(O)c1)c1cc(O)c(O)c(O)c1F (racemic) [1r]
- fold more potent than catechin gallate (CG) (DYRK1A [1]): about 3 fold
- stability in biological media [2]: improved stability in biological media

Structure (SMILES): O=C(OC1Cc2c(O)cccc2OC1c1cc(O)c(O)c(O)c1)c1cc(O)c(O)c(O)c1 (centres unmarked) [1b]
- times less potent against DYRK1A compared to the di-hydroxy derivatives (DYRK1A [1]): ~2 times

Structure (SMILES): O=C(OC1Cc2ccccc2CC1c1cc(O)c(O)c(O)c1)c1cc(O)c(O)c(O)c1 (centres unmarked) [1c]
- stability in biological media [2]: does not improve stability in biological media

Structure (SMILES): O=C(O[C@@H]1Cc2c(O)cc(O)cc2O[C@H]1c1cc(O)c(O)c(O)c1)c1cc(O)c(O)c(O)c1F [1f]
- spinal cord lesion severity, intranasal versus oral administration [3]: more effective at reducing lesion severity than oral administration
- fold improvement in activity against DYRK1A compared to GCG (DYRK1A [1]): about 3 fold
- effect of [ATP] on inhibitory potency (DYRK1A [4]): only marginally affected
- EAE disease scores ([5]; intranasal, 15 mg/kg twice daily): reversal of the disease scores similar to that observed with FTY720
- EAE disease scores ([5]; oral (PO), 15 mg/kg BID): no significant amelioratory effect until the last two days of the study

Structure (SMILES): O=C(O[C@@H]1Cc2c(O)cc(O)cc2O[C@H]1c1cc(O)c(O)c(O)c1F)c1cc(O)c(O)c(O)c1 [1n]
- stability in biological media [2]: did not translate into a stability improvement in biological media

Structure (SMILES): O=C(O[C@@H]1Cc2c(O)cc(O)cc2O[C@H]1c1cc(O)c(O)c(O)c1)c1cc(O)c(O)c(O)c1 [(−)GCG, reference compound]
- effect of [ATP] on inhibitory potency (DYRK1A [4]): only marginally affected

Structure (SMILES): O=C(O[C@@H]1Cc2c(O)cc(O)cc2O[C@H]1c1ccc(O)c(O)c1)c1cc(O)c(O)c(O)c1 [CG, catechin gallate]
- exposure increase with intranasal compared to the oral route [6]: 50 fold

Structure (SMILES): Oc1cc(O)c2c(c1)O[C@H](c1cc(O)c(O)c(O)c1)[C@H](O)C2 [EGC, EpiGalloCatechin, reference compound]
- pIC50 (DYRK1A [1]): < 4.00

Structure (SMILES): O=C(O[C@@H]1Cc2c(O)cc(O)cc2O[C@@H]1c1cc(O)c(O)c(O)c1)c1cc(O)c(O)c(O)c1 [EGCG, Epigallocatechin gallate]
- oral bioavailability (F) ([7]; rats): up to 5%
- oral bioavailability (F) [8]: up to 12%
- EAE disease scores ([5]; oral (PO), 15 mg/kg BID): did not see any significant activity

Structure (SMILES): COc1cc(C(=O)O[C@@H]2Cc3c(O)cc(O)cc3O[C@@H]2c2cc(O)c(O)c(O)c2)cc(O)c1O [EGCG-3”OMe]
- fold improved oral bioavailability than EGCG [7]: about 6 fold

Structure (SMILES): CCCCCCCCc1ccc(CCC(N)(CO)CO)cc1 [FTY720, Fingolimod, reference compound]
- EAE disease scores ([5]; 1 mg/kg QD): reversal of the disease scores

— article PMC9067539 (Bioorganic & medicinal chemistry letters, 2022)
